Experimental data published in ChEMBL document CHEMBL4033726, “Design of potent dipeptidyl peptidase IV (DPP-4) inhibitors by employing a strategy to form a salt bridge with Lys554” (Bioorg Med Chem Lett, 2017).

Assays:
Dipeptidyl peptidase 4 = Dipeptidyl peptidase 4 (Homo sapiens, UniProt P27487)
Description: Inhibition of human DPP4 purified from Caco2 cells pre-incubated for 15 mins before Gly-Pro-pNA substrate addition and measured after 60 mins

Rattus norvegicus = experiment: Ex vivo inhibition of DPP4 in Sprague-Dawley rat plasma at 1 mg/kg, po after 1 to 6 hrs using Gly-Pro-pNA substrate; assay type: functional
Dipeptidyl peptidase 8 = Dipeptidyl peptidase 8 (Homo sapiens, UniProt Q6V1X1); experiment: Inhibition of FLAG-tagged human DPP8 expressed in 293-F cells pre-incubated for 20 mins before Gly-Pro-pNA substrate addition and measured after 90 mins; assay type: cell-based
Sequence of Dipeptidyl peptidase 8 (Q6V1X1 whole entry): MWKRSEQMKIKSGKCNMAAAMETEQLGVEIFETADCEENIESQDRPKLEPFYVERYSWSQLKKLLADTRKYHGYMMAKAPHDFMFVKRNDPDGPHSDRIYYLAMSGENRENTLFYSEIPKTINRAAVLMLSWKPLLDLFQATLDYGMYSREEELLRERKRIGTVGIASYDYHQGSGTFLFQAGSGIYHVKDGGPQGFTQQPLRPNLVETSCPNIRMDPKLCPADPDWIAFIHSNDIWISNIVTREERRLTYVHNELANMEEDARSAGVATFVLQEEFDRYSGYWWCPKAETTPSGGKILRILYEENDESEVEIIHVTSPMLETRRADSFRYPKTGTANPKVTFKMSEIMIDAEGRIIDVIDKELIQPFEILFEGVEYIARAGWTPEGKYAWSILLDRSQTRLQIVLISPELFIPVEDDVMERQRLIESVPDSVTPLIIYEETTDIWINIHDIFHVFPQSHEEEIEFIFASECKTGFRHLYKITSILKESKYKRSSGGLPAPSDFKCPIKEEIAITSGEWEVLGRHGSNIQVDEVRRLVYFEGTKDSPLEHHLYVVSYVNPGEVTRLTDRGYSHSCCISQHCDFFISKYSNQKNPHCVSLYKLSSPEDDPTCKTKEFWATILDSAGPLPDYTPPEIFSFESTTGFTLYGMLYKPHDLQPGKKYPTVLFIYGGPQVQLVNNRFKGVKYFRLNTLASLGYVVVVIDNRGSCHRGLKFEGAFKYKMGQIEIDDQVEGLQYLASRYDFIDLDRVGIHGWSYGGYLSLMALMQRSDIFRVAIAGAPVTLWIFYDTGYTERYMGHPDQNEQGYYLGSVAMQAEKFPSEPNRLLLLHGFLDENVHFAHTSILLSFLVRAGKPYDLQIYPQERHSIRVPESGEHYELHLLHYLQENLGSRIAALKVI

Sequence of Dipeptidyl peptidase 4 (P27487 whole entry): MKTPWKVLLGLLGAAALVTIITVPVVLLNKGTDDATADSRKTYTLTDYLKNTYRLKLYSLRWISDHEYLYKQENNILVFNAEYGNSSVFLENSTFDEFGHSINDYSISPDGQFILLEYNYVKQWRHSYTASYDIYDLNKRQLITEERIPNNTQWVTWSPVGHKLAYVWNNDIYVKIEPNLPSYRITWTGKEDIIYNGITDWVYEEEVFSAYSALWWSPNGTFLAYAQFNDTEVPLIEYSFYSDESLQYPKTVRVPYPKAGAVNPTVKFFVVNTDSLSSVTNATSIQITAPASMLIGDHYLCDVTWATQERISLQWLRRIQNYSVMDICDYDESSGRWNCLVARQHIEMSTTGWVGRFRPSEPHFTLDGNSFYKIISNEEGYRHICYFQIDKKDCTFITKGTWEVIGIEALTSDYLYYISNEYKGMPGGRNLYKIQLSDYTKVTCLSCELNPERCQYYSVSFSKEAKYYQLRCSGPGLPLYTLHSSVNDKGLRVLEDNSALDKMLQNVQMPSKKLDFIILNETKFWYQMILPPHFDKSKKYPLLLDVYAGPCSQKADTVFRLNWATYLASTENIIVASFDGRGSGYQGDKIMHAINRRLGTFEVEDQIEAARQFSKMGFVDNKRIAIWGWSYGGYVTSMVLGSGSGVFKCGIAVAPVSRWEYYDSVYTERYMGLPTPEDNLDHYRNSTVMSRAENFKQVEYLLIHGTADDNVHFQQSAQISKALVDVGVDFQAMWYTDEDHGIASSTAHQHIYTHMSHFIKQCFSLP

Row | Structure (SMILES) | IC50 (Dipeptidyl peptidase 4) | inhibition in vivo at 1 mg/kg (Rattus norvegicus) | IC50 (Dipeptidyl peptidase 8)
1 | Cc1ccc(-c2c(CN)c(CC(C)C)nc(C)c2C(=O)OC[C@H]2CC[C@H](C(=O)O)CC2)cc1 | 80 nM |  | 
2 | Cc1ccc(-c2c(COCc3ccc(C(=O)O)cc3)c(C)nc(CC(C)C)c2CN)cc1 | 7.2 nM |  | 
3 | NCc1c(Cc2ccccc2)nc2ccc(OCC(N)=O)cc2c1-c1ccccc1 | 720 nM |  | 
4 | Cc1ccc(-c2c(CN)c(CC(C)C)nc3ccc(-c4nc(C(=O)O)cs4)cc23)cc1 | 0.38 nM | > 50% | 
5 | Cc1ccc(-c2c(-c3nc(C(N)=O)cs3)cnc(CC(C)C)c2CN)cc1 | 2.1 nM |  | 
6 | Cc1ccc(-c2c(CN)c(CC(C)C)nc(C)c2C(=O)OCCCC(=O)O)cc1 | 470 nM |  | 
7 | Cc1ccc(-c2c(CN)c(CC(C)C)nc3ccc(OCCCC(=O)O)cc23)cc1 | 17 nM |  | 
8 | CC(C)Cc1nc2ccc(Br)cc2c(-c2ccccc2)c1CN | 630 nM |  | 
9 | CCCCCc1nc2ccc(OCC(N)=O)cc2c(-c2ccccc2)c1CN | 540 nM |  | 
10 | Cc1ccc(-c2c(CN)c(CC(C)C)nc3ccc(OCCC(=O)O)cc23)cc1 | 29 nM |  | 
11 | Cc1ccc(-c2c(CN)c(CC(C)C)nc3ccc(OCCCCCC(=O)O)cc23)cc1 | 6.8 nM |  | 
12 | CC(C)Cn1c(CN)c(-c2ccccc2)c2cc(Br)ccc2c1=O | 1200 nM |  | 
13 | Cc1ccc(-c2c(CN)c(CC(C)C)nc(C)c2C(=O)OCc2ccccc2C(=O)O)cc1 | 29 nM |  | 
14 | Cc1ccc(-c2c(CN)c(CC(C)C)nc3ccc(OCCCCC(N)=O)cc23)cc1 | 13 nM |  | 
15 | Cc1ccc(-c2c(CN)c(CC(C)C)nc3ccc(OCC(=O)O)cc23)cc1 | 140 nM |  | 
16 | Cc1ccc(-c2c(CN)c(CC(C)C)nc(C)c2C(=O)OCc2cccc(C(=O)O)c2)cc1 | 87 nM |  | 
17 | CCCCc1nc2ccc(OCC(N)=O)cc2c(-c2ccccc2)c1CN | 620 nM |  | 
18 | Cc1ccc(-c2c(CN)c(CC(C)C)nc3ccc(-c4ccc(C(=O)O)o4)cc23)cc1 | 28 nM |  | 
19 | CC(C)(C)Cc1nc2ccc(OCC(N)=O)cc2c(-c2ccccc2)c1CN | 250 nM |  | 
20 | CC(C)Cn1c(CN)c(-c2ccccc2)c2cc(Br)cnc2c1=O | 1200 nM |  | 
21 | Cc1ccc(-c2c(CN)n(CC(C)C)c(=O)c3ccc(OCC(N)=O)cc23)cc1 | 220 nM |  | 
22 | Cc1ccc(-c2c(CCc3nc(C(N)=O)cs3)c(C)nc(CC(C)C)c2CN)cc1 | 8.5 nM |  | 
23 | CC(C)Cc1nc2ccc(C(N)=O)cc2c(-c2ccccc2)c1CN | 170 nM |  | 
24 | CC(=O)c1csc(-c2cnc(CC(C)C)c(CN)c2-c2ccc(C)cc2)n1 | 8.7 nM |  | 
25 | Cc1ccc(-c2c(/C=C/c3nc(C(=O)O)cs3)c(C)nc(CC(C)C)c2CN)cc1 | 5.5 nM |  | 
26 | Cc1ccc(-c2c(CCc3nc(C(=O)O)cs3)c(C)nc(CC(C)C)c2CN)cc1 | 2.6 nM |  | 
27 | Cc1ccc(-c2c(CN)c(CC(C)C)nc3ccc(OCCCCC(=O)O)cc23)cc1 | 4.6 nM |  | 
28 | Cc1ccc(-c2c(CN)c(CC(C)C)nc(C)c2C(=O)OCc2ccc(C(=O)O)cc2)cc1 | 17 nM |  | > 100000 nM
29 | CCCc1nc2ccc(OCC(N)=O)cc2c(-c2ccccc2)c1CN | 510 nM |  | 
30 | CC(C)Cn1c(CN)c(-c2ccccc2)c2cc(C(N)=O)cnc2c1=O | 470 nM |  | 
